Binary diffusion coefficient data for 16 compounds are collected here from the NIST ThermoML archive (doi:10.1016/j.jct.2017.04.009).

This series is described as follows: xn = mol fraction of the nth substance listed. To be noted: Liquid, pressure decay method.

For `CCCCCC[n+]1ccn(C)c1.O=S(=O)([N-]S(=O)(=O)C(F)(F)F)C(F)(F)F` + O=C=O, the binary diffusion coefficient (283.2 K, 91.5 kPa, x2 = 0) was determined as 2.64e-10 m2/s; the binary diffusion coefficient (298.2 K, 99.7 kPa, x2 = 0) came out at 3.89e-10 m2/s; the binary diffusion coefficient (313.2 K, 103.4 kPa, x2 = 0) is 5.97e-10 m2/s.
For the compound `CC(F)(F)F` [1,1,1-trifluoroethane] + CCCCCC[n+]1ccn(C)c1.O=S(=O)([N-]S(=O)(=O)C(F)(F)F)C(F)(F)F, the binary diffusion coefficient is, setting by setting: (303.2 K, 104 kPa, x1 = 0) 1.84e-10 m2/s; (313.2 K, 98.7 kPa, x1 = 0) 2.4e-10 m2/s; (323.2 K, 99.5 kPa, x1 = 0) 3.35e-10 m2/s; (333.2 K, 102.6 kPa, x1 = 0) 3.97e-10 m2/s; (343.2 K, 99.7 kPa, x1 = 0) 5.1e-10 m2/s.
For the compound `CC(F)(F)F` [1,1,1-trifluoroethane] + CCCCCCn1cc[n+](C)c1.F[B-](F)(F)F, the binary diffusion coefficient reads like this: (303.2 K, 149.1 kPa, x1 = 0) 7.7e-11 m2/s; (313.2 K, 159.2 kPa, x1 = 0) 1.15e-10 m2/s; (323.2 K, 173.5 kPa, x1 = 0) 1.89e-10 m2/s; (333.2 K, 187.6 kPa, x1 = 0) 2.62e-10 m2/s; (343.2 K, 189 kPa, x1 = 0) 3.39e-10 m2/s.
Take `CC(F)F` [1,1-difluoroethane] + CCCCCC[n+]1ccn(C)c1.O=S(=O)([N-]S(=O)(=O)C(F)(F)F)C(F)(F)F: the binary diffusion coefficient is, setting by setting: (303.2 K, 87.7 kPa, x1 = 0) 9.9e-11 m2/s; (313.2 K, 89.1 kPa, x1 = 0) 1.41e-10 m2/s; (323.2 K, 92.5 kPa, x1 = 0) 2.02e-10 m2/s; (333.2 K, 96.4 kPa, x1 = 0) 2.61e-10 m2/s; (343.2 K, 93.8 kPa, x1 = 0) 3.16e-10 m2/s.
Consider `CC(F)F` [1,1-difluoroethane] + CCCCCCn1cc[n+](C)c1.F[B-](F)(F)F, for which the binary diffusion coefficient by setting is: (303.2 K, 95.1 kPa, x1 = 0) 7.4e-11 m2/s; (313.2 K, 101.6 kPa, x1 = 0) 1.07e-10 m2/s; (323.2 K, 102 kPa, x1 = 0) 1.59e-10 m2/s; (333.2 K, 97.8 kPa, x1 = 0) 2.07e-10 m2/s; (343.2 K, 98.5 kPa, x1 = 0) 2.56e-10 m2/s.
For `CCCCCCn1cc[n+](C)c1.F[B-](F)(F)F` [1-hexyl-3-methylimidazolium tetrafluoroborate] + FCF, the binary diffusion coefficient worked out at 1.29e-10 m2/s (303.2 K, 95.7 kPa, x2 = 0); 1.8e-10 m2/s (313.2 K, 102 kPa, x2 = 0); 2.55e-10 m2/s (323.2 K, 99.1 kPa, x2 = 0); 3.57e-10 m2/s (333.2 K, 103.5 kPa, x2 = 0); 4.76e-10 m2/s (343.2 K, 99.9 kPa, x2 = 0).
Consider `CCCCCCn1cc[n+](C)c1.O=S(=O)([O-])C(F)(F)F` [1-hexyl-3-methylimidazolium trifluoromethanesulfonate] + C=C(F)C(F)(F)F, for which the binary diffusion coefficient came to 1.46e-10 m2/s (303.2 K, 104.3 kPa, x2 = 0); 2e-10 m2/s (313.2 K, 101.6 kPa, x2 = 0); 2.66e-10 m2/s (323.2 K, 106.7 kPa, x2 = 0); 3.76e-10 m2/s (333.2 K, 100.8 kPa, x2 = 0); 4.97e-10 m2/s (343.2 K, 109 kPa, x2 = 0).
In the case of `CCCCCCn1cc[n+](C)c1.O=S(=O)([O-])C(F)(F)F` [1-hexyl-3-methylimidazolium trifluoromethanesulfonate] + CC(F)(F)F, the binary diffusion coefficient is, setting by setting: (303.2 K, 97.3 kPa, x2 = 0) 1.96e-10 m2/s; (313.2 K, 110.5 kPa, x2 = 0) 2.61e-10 m2/s; (323.2 K, 105.4 kPa, x2 = 0) 3.48e-10 m2/s; (333.2 K, 108.8 kPa, x2 = 0) 4.58e-10 m2/s; (343.2 K, 106.3 kPa, x2 = 0) 6.13e-10 m2/s.
As to `CCCCCCn1cc[n+](C)c1.O=S(=O)([O-])C(F)(F)F` [1-hexyl-3-methylimidazolium trifluoromethanesulfonate] + CC(F)F, the binary diffusion coefficient amounted to 1.48e-10 m2/s (303.2 K, 86.8 kPa, x2 = 0); 2.13e-10 m2/s (313.2 K, 95.7 kPa, x2 = 0); 2.82e-10 m2/s (323.2 K, 98 kPa, x2 = 0); 3.79e-10 m2/s (333.2 K, 101.9 kPa, x2 = 0); 4.73e-10 m2/s (343.2 K, 99.1 kPa, x2 = 0).
As for `CCCCCCn1cc[n+](C)c1.O=S(=O)([O-])C(F)(F)F` [1-hexyl-3-methylimidazolium trifluoromethanesulfonate] + CCF, the binary diffusion coefficient was determined as 2.08e-10 m2/s (303.2 K, 94.5 kPa, x2 = 0); 2.75e-10 m2/s (313.2 K, 103.8 kPa, x2 = 0); 3.68e-10 m2/s (323.2 K, 97 kPa, x2 = 0); 4.76e-10 m2/s (333.2 K, 94.4 kPa, x2 = 0); 5.91e-10 m2/s (343.2 K, 98.1 kPa, x2 = 0).
Take `CCCCCCn1cc[n+](C)c1.O=S(=O)([O-])C(F)(F)F` [1-hexyl-3-methylimidazolium trifluoromethanesulfonate] + FC(F)C(F)(F)F: the binary diffusion coefficient (303.2 K, 97.2 kPa, x2 = 0) worked out at 2.38e-10 m2/s; the binary diffusion coefficient (313.2 K, 98.5 kPa, x2 = 0) came out at 3.05e-10 m2/s; the binary diffusion coefficient (323.2 K, 99.1 kPa, x2 = 0) worked out at 4.17e-10 m2/s; the binary diffusion coefficient (333.2 K, 100.9 kPa, x2 = 0) turned out to be 5.25e-10 m2/s; the binary diffusion coefficient (343.2 K, 103.8 kPa, x2 = 0) came to 6.19e-10 m2/s.
Take `CCCCCCn1cc[n+](C)c1.O=S(=O)([O-])C(F)(F)F` [1-hexyl-3-methylimidazolium trifluoromethanesulfonate] + FCF: the binary diffusion coefficient is, setting by setting: (303.2 K, 98.2 kPa, x2 = 0) 3.01e-10 m2/s; (313.2 K, 102 kPa, x2 = 0) 4.27e-10 m2/s; (323.2 K, 99.3 kPa, x2 = 0) 5.35e-10 m2/s; (333.2 K, 100.2 kPa, x2 = 0) 6.82e-10 m2/s; (343.2 K, 100.4 kPa, x2 = 0) 8.35e-10 m2/s.
On to `C=C(F)C(F)(F)F` [2,3,3,3-tetrafluoro-1-propene] + CCCCCC[n+]1ccn(C)c1.O=S(=O)([N-]S(=O)(=O)C(F)(F)F)C(F)(F)F, for which the binary diffusion coefficient by setting is: (303.2 K, 96.7 kPa, x1 = 0) 1.39e-10 m2/s; (313.2 K, 95.6 kPa, x1 = 0) 1.99e-10 m2/s; (323.2 K, 97.7 kPa, x1 = 0) 2.75e-10 m2/s; (333.2 K, 98.3 kPa, x1 = 0) 4.01e-10 m2/s; (343.2 K, 102.9 kPa, x1 = 0) 5.96e-10 m2/s.
On to `C=C(F)C(F)(F)F` [2,3,3,3-tetrafluoro-1-propene] + CCCCCCn1cc[n+](C)c1.F[B-](F)(F)F, for which the binary diffusion coefficient reads like this: (303.2 K, 158.3 kPa, x1 = 0) 6.9e-11 m2/s; (313.2 K, 168.4 kPa, x1 = 0) 1.02e-10 m2/s; (323.2 K, 170 kPa, x1 = 0) 1.59e-10 m2/s; (333.2 K, 185.3 kPa, x1 = 0) 2.47e-10 m2/s; (343.2 K, 189 kPa, x1 = 0) 3.59e-10 m2/s.
For the compound `FCF` [difluoromethane] + CCCCCC[n+]1ccn(C)c1.O=S(=O)([N-]S(=O)(=O)C(F)(F)F)C(F)(F)F, the binary diffusion coefficient is, setting by setting: (303.2 K, 92.8 kPa, x1 = 0) 1.55e-10 m2/s; (313.2 K, 93.9 kPa, x1 = 0) 2.15e-10 m2/s; (323.2 K, 94.4 kPa, x1 = 0) 2.77e-10 m2/s; (333.2 K, 94.3 kPa, x1 = 0) 3.68e-10 m2/s; (343.2 K, 95.2 kPa, x1 = 0) 4.78e-10 m2/s.
`CCF` [fluoroethane] + CCCCCC[n+]1ccn(C)c1.O=S(=O)([N-]S(=O)(=O)C(F)(F)F)C(F)(F)F: the binary diffusion coefficient is, setting by setting: (303.2 K, 90.2 kPa, x1 = 0) 1.28e-10 m2/s; (313.2 K, 91.1 kPa, x1 = 0) 2.08e-10 m2/s; (323.2 K, 93.4 kPa, x1 = 0) 2.96e-10 m2/s; (333.2 K, 93 kPa, x1 = 0) 3.46e-10 m2/s; (343.2 K, 92.5 kPa, x1 = 0) 4.13e-10 m2/s.
